Reference: US12188040B2, “Method for enhancing gene expression using AAV vector” (priority 2018, dated 2025)
Several values for one entry are separate records, joined by “and”; a condition that tells them apart may be missing. Equal values may be shown once. Read-outs that look alike come from different tables or passages of the source.

Key:
HEK293 cells [1] = test system: HEK293 cells
Method: As the first procedure, 4 methods of the addition were carried out, including adding sucrose immediately (5 minutes or less) after the administration of the AAV vector, and the administration of the AAV vector immediately (5 minutes or less) after, 10 minutes after or 1 hour after adding sucrose to cells.
In the same manner as the above-described procedure, the GFP expression level was measured 3 days later.
In the same manner as the above-described procedures, the GFP expression level was measured 3 days later.
AAV3B-CMV-AcGFP was mixed in advance with sucrose at each of various concentrations, and the mixture was allowed to stand at room temperature for 1 hour followed by administration to cells. […] In order to prevent cell damage due to a buffer at the time of dilution of sucrose, medium replacement was carried out using a sucrose solution having the same concentration that was prepared by the medium 3 hours after the administration.

HepG2 cells [2] = assay: GFP expression in HepG2 cells infected with AAV3B-CMV-AcGFP in the presence of sucrose; conditions: Exp 3, AAV3B-CMV-AcGFP 5×10^8 vg/well, 3 days
Method: (§1) Three types of AAV vectors (AAV3B, yf2AAV9 and AAVGT4) were used.
(§2) To the culture cells of (b) above, 6×10^7 to 5×10^8 vg/well of AAV3B-CMV-AcGFP expressing GFP described in Item (a) above was added, or 2×10^9 vg/well of yf2AAV9-CMV-AcGFP was added, and then the cells were cultured for 3 to 6 days.
(§3) The fluorescence intensity of GFP was measured using a plate reader (BioTek Japan) and comparison thereof was made. Further, the images of typical view fields were taken using the fluorescence microscope (Olympus IX83).
(§4) On a 96 well Optical bottom plate, 5×10^4 cells/well of HepG2 cells were seeded, and 5×10^8 vg/well of AAVGT4-CMV-AcGFP or 5×10^8 vg/well of AAV3B-CMV-AcGFP was added to the medium on the next day. […] To a sucrose (−) control, the medium in the same amount as that of the sucrose solution was added. After cell cultivation for 3 days under 5% CO2 at 37° C. in an incubator, the fluorescence intensity of GFP was measured using the plate reader and comparison thereof was made.

HepG2 cells [3] = assay: GFP expression in HepG2 cells infected with AAVGT4-CMV-AcGFP in the presence of sucrose; conditions: Exp 3, AAVGT4-CMV-AcGFP 5×10^8 vg/well, 3 days
Method: as §1, §2, §3, §4

HEK293 cells [4] = assay: GFP expression in HEK293 cells infected with yf2AAV9-CMV-AcGFP in the presence of sucrose; conditions: Exp 1, yf2AAV9-CMV-AcGFP 2×10^9 vg/well, 3 days
Method: as §2, §3
On a 96 well Optical bottom plate (ThermoFisher), 5×10^4 cells/well of HEK293 cells were seeded, and the next day, either 2×10^8 vg/well of AAV3B-CMV-AcGFP or 2×10^9 vg/well of yf2AAV9-CMV-AcGFP was added thereto. […] To a sucrose (−) control, the same amount of the medium as that of the sucrose solution was added. After cell cultivation for 3 days under 5% CO2 at 37° C. in an incubator, the fluorescence intensity of GFP was measured using the plate reader (BioTek Japan) and comparison thereof was made (FIG. 1A). Further, the images of typical view fields were taken using the fluorescence microscope (Olympus IX83) (FIG. 1B).

[5] = Exp 2, AAV3B 6×10^7 vg/well, iso-osmotic additives: sucrose 125.0, glucose 132.3, mannitol 132.3, NaCl 71.5 mM, 3 days
[6] = Exp 6, sucrose 187 mM, data not shown

OC[C@H]1O[C@@](CO)(O[C@H]2O[C@H](CO)[C@@H](O)[C@H](O)[C@H]2O)[C@@H](O)[C@@H]1O [Sucrose, sucrose]
GFP fluorescence intensity (HEK293 cells [1]; Exp 1, AAV3B-CMV-AcGFP 2×10^8 vg/well, sucrose 125 mM final, 3 days): 9257.45 | (+)/(−) GFP expression increase (HEK293 cells [1]; Exp 1, AAV3B-CMV-AcGFP 2×10^8 vg/well, sucrose 125 mM vs no sucrose, 3 days): 15.4 times | GFP intensity (HEK293 cells [1]; [5]): 1844.8 | Relativeness (vs No Additive) (HEK293 cells [1]; [5]): 11 times and 11.2 times | Fluorescence Intensity (HEK293 cells [1]; Exp 4A, AAV3B 1×10^8 vg/well, AAV 10 min after sucrose 125 mM, 3 days): 2580.3 | Fluorescence Intensity (HEK293 cells [1]; Exp 4A, AAV3B 1×10^8 vg/well, AAV 1 hr after sucrose 125 mM, 3 days): 3047 | Fluorescence Intensity (HEK293 cells [1]; Exp 4A, AAV3B 1×10^8 vg/well, AAV immediately after sucrose 125 mM, 3 days): 2356.2 | Fluorescence Intensity (HEK293 cells [1]; Exp 4A, AAV3B 1×10^8 vg/well, sucrose 125 mM added immediately after AAV, 3 days): 2500.8 | Relativeness (vs Sucrose(−)) (HEK293 cells [1]; Exp 4A, AAV 10 min after sucrose 125 mM, 3 days): 10.5 | Relativeness (vs Sucrose(−)) (HEK293 cells [1]; Exp 4A, AAV 1 hr after sucrose 125 mM, 3 days): 12.4 | Relativeness (vs Sucrose(−)) (HEK293 cells [1]; Exp 4A, AAV immediately after sucrose 125 mM, 3 days): 9.6 | Relativeness (vs Sucrose(−)) (HEK293 cells [1]; Exp 4A, sucrose 125 mM added immediately after AAV, 3 days): 10.2 | Increase of expression (HEK293 cells [1]; Exp 4A, sucrose 125 mM, any of the adding methods, 3 days): about 10 times | Fluorescence Intensity (HEK293 cells [1]; Exp 4B, AAV3B 1×10^8 vg/well premixed with sucrose (125 mM final), administered 1 hr after mixing, 3 days): 3049.8 | Fluorescence Intensity (HEK293 cells [1]; Exp 4B, AAV3B 1×10^8 vg/well premixed with sucrose (125 mM final), administered immediately after mixing, 3 days): 3002.5 | Relativeness (vs (−) => (−)) (HEK293 cells [1]; Exp 4C, (+) => (+): sucrose from immediately after AAV, 3 days): 4.9 times | Relativeness (vs (−) => (−)) (HEK293 cells [1]; Exp 4C, (−) => (+): sucrose added 3 hours later, 3 days): 2.8 times | Fluorescence Intensity (HEK293 cells [1]; Exp 4C, AAV3B 1×10^8 vg/well, (+) => (+): sucrose 125 mM from immediately after AAV, 3 days): 534.5 | Fluorescence Intensity (HEK293 cells [1]; Exp 4C, AAV3B 1×10^8 vg/well, (−) => (+): sucrose 125 mM only from medium replacement 3 h after AAV, 3 days): 309.8 | Optimum concentration for expression enhancement (HEK293 cells [1]; Exp 6, after 3 days): 150 mM | Fluorescence Intensity (HEK293 cells [1]; Exp 6, sucrose 80 mM, AAV3B 1×10^8 vg/well premixed 1 h, 3 days): 1026.0 | Relativeness (vs 0 mM) (HEK293 cells [1]; Exp 6, sucrose 90 mM, 3 days): 6.4 | Fluorescence Intensity (HEK293 cells [1]; Exp 6, sucrose 90 mM, AAV3B 1×10^8 vg/well premixed 1 h, 3 days): 1230.5 | Relativeness (vs 0 mM) (HEK293 cells [1]; Exp 6, sucrose 100 mM, 3 days): 8.1 | Fluorescence Intensity (HEK293 cells [1]; Exp 6, sucrose 100 mM, AAV3B 1×10^8 vg/well premixed 1 h, 3 days): 1568.3 | Relativeness (vs 0 mM) (HEK293 cells [1]; Exp 6, sucrose 105 mM, 3 days): 9.2 | Fluorescence Intensity (HEK293 cells [1]; Exp 6, sucrose 105 mM, AAV3B 1×10^8 vg/well premixed 1 h, 3 days): 1769.3 | Relativeness (vs 0 mM) (HEK293 cells [1]; Exp 6, sucrose 110 mM, 3 days): 10.1 | Fluorescence Intensity (HEK293 cells [1]; Exp 6, sucrose 110 mM, AAV3B 1×10^8 vg/well premixed 1 h, 3 days): 1952.3 | Relativeness (vs 0 mM) (HEK293 cells [1]; Exp 6, sucrose 115 mM, 3 days): 12.2 | Fluorescence Intensity (HEK293 cells [1]; Exp 6, sucrose 115 mM, AAV3B 1×10^8 vg/well premixed 1 h, 3 days): 2351.3 | Relativeness (vs 0 mM) (HEK293 cells [1]; Exp 6, sucrose 120 mM, 3 days): 15.3 | Fluorescence Intensity (HEK293 cells [1]; Exp 6, sucrose 120 mM, AAV3B 1×10^8 vg/well premixed 1 h, 3 days): 2941.0 | Relativeness (vs 0 mM) (HEK293 cells [1]; Exp 6, sucrose 125 mM, 3 days): 18.8 | Fluorescence Intensity (HEK293 cells [1]; Exp 6, sucrose 125 mM, AAV3B 1×10^8 vg/well premixed 1 h, 3 days): 3626.8 | Relativeness (vs 0 mM) (HEK293 cells [1]; Exp 6, sucrose 130 mM, 3 days): 21.1 | Fluorescence Intensity (HEK293 cells [1]; Exp 6, sucrose 130 mM, AAV3B 1×10^8 vg/well premixed 1 h, 3 days): 4069.0 | Relativeness (vs 0 mM) (HEK293 cells [1]; Exp 6, sucrose 135 mM, 3 days): 25.0 | Fluorescence Intensity (HEK293 cells [1]; Exp 6, sucrose 135 mM, AAV3B 1×10^8 vg/well premixed 1 h, 3 days): 4813.3 | Relativeness (vs 0 mM) (HEK293 cells [1]; Exp 6, sucrose 140 mM, 3 days): 29.2 | Fluorescence Intensity (HEK293 cells [1]; Exp 6, sucrose 140 mM, AAV3B 1×10^8 vg/well premixed 1 h, 3 days): 5620.5 | Fluorescence Intensity (HEK293 cells [1]; Exp 6, sucrose 145 mM, AAV3B 1×10^8 vg/well premixed 1 h, 3 days): 5763.8 | Fluorescence Intensity (HEK293 cells [1]; Exp 6, sucrose 150 mM, AAV3B 1×10^8 vg/well premixed 1 h, 3 days): 6411.8 | Fluorescence Intensity (HEK293 cells [1]; Exp 6, sucrose 160 mM, AAV3B 1×10^8 vg/well premixed 1 h, 3 days): 5922.5 | Cell damage (HEK293 cells [1]; [6]): damaged and detached | Decrease of GFP intensity (HEK293 cells [1]; [6]): about 20% | Fluorescence Intensity (HEK293 cells [1]; Exp 8, disaccharide 100 mM in medium, AAV3B 1×10^8 vg/well, Day 3): 1312.7 | Relativeness (vs No Sugar) (HEK293 cells [1]; Exp 8, disaccharide 100 mM, Day 3): 2.2 | Fluorescence Intensity (HEK293 cells [1]; Exp 8, disaccharide 125 mM in medium, AAV3B 1×10^8 vg/well, Day 3): 1760.5 | Relativeness (vs No Sugar) (HEK293 cells [1]; Exp 8, disaccharide 125 mM, Day 3): 2.9 | Fluorescence Intensity (HEK293 cells [1]; Exp 8, disaccharide 150 mM in medium, AAV3B 1×10^8 vg/well, Day 3): 2979.5 | Fluorescence Intensity (HEK293 cells [1]; Exp 8, disaccharide 150 mM, AAV3B 1×10^8 vg/well, Day 1): 434.5 | Fluorescence Intensity (HEK293 cells [1]; Exp 8, disaccharide 150 mM, AAV3B 1×10^8 vg/well, Day 2): 1657.3 | Fluorescence Intensity (HEK293 cells [1]; Exp 8, disaccharide 150 mM, AAV3B 1×10^8 vg/well, Day 6): 7908.0 | Relativeness (vs No Sugar) (HEK293 cells [1]; Exp 8, disaccharide 150 mM, Day 3): 4.9 | (+)/(−) GFP expression increase (HepG2 cells [2]; sucrose 125 mM vs none): 16.1 times | GFP fluorescence intensity (HepG2 cells [2]; sucrose 125 mM): 970.8 | (+)/(−) GFP expression increase (HepG2 cells [3]; sucrose 125 mM vs none): 19.1 times | GFP fluorescence intensity (HepG2 cells [3]; sucrose 125 mM): 579.8 | GFP fluorescence intensity (HEK293 cells [4]; sucrose 125 mM final): 321.4 | (+)/(−) GFP expression increase (HEK293 cells [4]; sucrose 125 mM vs no sucrose): 19.6 times
